Values after ≈ are worked out from the molar mass of the structure shown.
System: complement alternative pathway (AP) activity
Experiment: MAD study: serum AP activity ex vivo by AP Wieslab assay
Assay type: in vivo, human
Details: for % AUEC0-12 / DURATION0-12: Days 7 and 14 combined analysis
Procedure: Serum AP hemolysis activity was assessed in samples collected from all cohorts at predefined time points from Day 1 (pre-dose) through Day 21. Intense sampling was obtained on Day 1 (0 h to 12 h), Day 7 (0 h to 12 h), and Day 14 (0 h to 16 h); all other serum samples were collected at 0 h (morning PK troughs) on the indicated days. Activity for each cohort is shown for the complete time course Day 1-21 (FIG. 17), Day 1 (FIG. 18), Day 7 (FIG. 19) and Day 14 (FIG. 20). Serum complement AP activity measured ex vivo by the AP Wieslab assay, serum total complement classical pathway (CP) activity, plasma complement Bb concentrations, and serum FD, C3, and C4 concentrations were also measured at predefined time points.

[1] = Homo sapiens, sigmoidal model, multiple-dose cohorts

CC(=O)c1nn(CC(=O)N2[C@H](C(=O)Nc3nc(Br)ccc3C)C[C@@]3(C)C[C@@H]23)c2ccc(-c3cnc(C)nc3)cc12 [Compound 1, (1R,3S,5R)-2-(2-(3-acetyl-5-(2-methylpyrimidin-5-yl)-1H-indazol-1-yl)acetyl)-N-(6-bromo-3-methylpyridin-2-yl)-5-methyl-2-azabicyclo[3.1.0]hexane-3-carboxamide]
% AUEC0-12 (120 mg BID): 98.6%
DURATION0-12 (120 mg BID): 11.6 h
% AUEC0-12 (200 mg BID): 99.3%
DURATION0-12 (200 mg BID): 11.9 h
inhibition at 120 mg (Homo sapiens, 120 mg BID and 200 mg BID, read-out: calculated percent inhibition across 0 h and 12 h time points): > 90%
EC50 (Homo sapiens, Emax model, multiple-dose cohorts): 0.0143 µg/mL (≈ 0.0237 µM)
EC50 [1]: 0.0192 µg/mL (≈ 0.0319 µM)
EC90 [1]: 0.0669 µg/mL (≈ 0.111 µM)

From US12239645B2, “Targeted dosing for the treatment of complement mediated disorders” (Achillion Pharmaceuticals, Inc., priority 2018, dated 2025)
